Structures can show the parent of a compound that is named as a salt.
Columns and labels:
mexB (PA) strain = assay: Combinational effect with antibacterial agent against Pseudomonas aeruginosa (Test Examples 2 and 4): mexB (PA) strain with LVFX, TC or AZT at 1/4 MIC, EC99; format: cell-based; details: Table 52, Test Example 2, 16 to 20 hours culture, OD595; for EC99, mexB (PA), AZT: combined with AZT at 1/4 MIC; for EC99, mexB (PA), LVFX: combined with LVFX at 1/4 MIC; for EC99, mexB (PA), TC: combined with TC at 1/4 MIC
Summary of the method: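 P. aeruginosa mexB (PA) strain, lacking MexCD-OprJ, MexEF-OprN and MexXY and overexpressing MexAB-OprM, grown 16–20 h in CAMHB (10^4–5 CFU/well) with LVFX, TC or AZT at ¼ MIC plus test compound at 0–800 μM. Growth read as OD595; EC99 is the lowest compound concentration giving ≥99% growth inhibition.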

S-3769 strain = assay: Combinational effect with antibacterial agent against Pseudomonas aeruginosa (Test Examples 2 and 4): S-3769 strain with AMK or GM at 1/4 MIC, EC99; format: cell-based; details: Table 52, Test Example 2, 16 to 20 hours culture, OD595; for EC99, S-3769 strain, AMK: combined with AMK at 1/4 MIC; for EC99, S-3769 strain, GM: combined with GM at 1/4 MIC
Summary of the method: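 P. aeruginosa S-3769 (clinical isolate, MexY overexpressed) grown 16–20 h in CAMHB, 10^4 to 5 CFU/well, with AMK or GM at ¼ MIC plus test compound 0–800 μM. Growth read as OD595; EC99 is the lowest compound concentration giving ≥99% growth inhibition.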

Compound: CCOc1cccc(F)c1CN1CCN(C(=O)[C@H](N)C2CCN(CCc3cc(Cl)ccc3-c3ccc(F)cc3Cl)CC2)CC1 [Example 90, Hydrobromide of (R)-2-amino-2-(1-(2-(2′,4-dichloro-4′-fluoro-[1,1′-biphenyl]-2-yl)ethyl)piperidin-4-yl)-1-(4-(2-ethoxy-6-fluorobenzyl)piperazin-1-yl) ethan-1-one]
- EC99, mexB (PA), AZT (mexB (PA) strain): B (25 μM<EC99≤100 μM)
- EC99, mexB (PA), LVFX (mexB (PA) strain): B (25 μM<EC99≤100 μM)
- EC99, mexB (PA), TC (mexB (PA) strain): A (12.5 μM<EC99≤25 μM)
- EC99, S-3769 strain, AMK (S-3769 strain): A (12.5 μM<EC99≤25 μM)
- EC99, S-3769 strain, GM (S-3769 strain): B (25 μM<EC99≤100 μM)

Compound: CCOc1cccc(F)c1CN1CCN(C(=O)[C@H](N)C2CCN(CCc3cc(Cl)ccc3-c3cnccc3Cl)CC2)CC1 [Example 91, Hydrobromide of (R)-2-amino-2-(1-(5-chloro-2-(4-chloropyridin-3-yl)phenethyl)piperidin-4-yl)-1-(4-(2-ethoxy-6-fluorobenzyl)piperazin-1-yl) ethan-1-one]
- EC99, mexB (PA), AZT (mexB (PA) strain): B (25 μM<EC99≤100 μM)
- EC99, mexB (PA), LVFX (mexB (PA) strain): C (100 μM<EC99)
- EC99, mexB (PA), TC (mexB (PA) strain): B (25 μM<EC99≤100 μM)
- EC99, S-3769 strain, AMK (S-3769 strain): B (25 μM<EC99≤100 μM)
- EC99, S-3769 strain, GM (S-3769 strain): B (25 μM<EC99≤100 μM)

Compound: CCOc1cccc(F)c1CN1CCN(C(=O)[C@H](N)C2CCN(CCc3cc(Cl)ccc3-c3cnccc3N)CC2)CC1 [Example 93, (R)-2-amino-2-(1-(2-(4-aminopyridin-3-yl)-5-chlorophenethyl)piperidin-4-yl)-1-(4-(2-ethoxy-6-fluorobenzyl)piperazin-1-yl)ethan-1-one]
- EC99, mexB (PA), AZT (mexB (PA) strain): S (EC99≤12.5 μM)
- EC99, mexB (PA), LVFX (mexB (PA) strain): S (EC99≤12.5 μM)
- EC99, mexB (PA), TC (mexB (PA) strain): S (EC99≤12.5 μM)
- EC99, S-3769 strain, AMK (S-3769 strain): B (25 μM<EC99≤100 μM)
- EC99, S-3769 strain, GM (S-3769 strain): B (25 μM<EC99≤100 μM)

Compound: CCOc1ccc(O)c(F)c1CN1CCN(C(=O)[C@H](N)C2CCN(CCc3ccccc3)CC2)CC1 [Example 94, hydrobromide of (R)-2-amino-1-(4-(6-ethoxy-2-fluoro-3-hydroxybenzyl)piperazin-1-yl)-2-(1-phenethylpiperidin-4-yl)ethan-1-one]
- EC99, mexB (PA), AZT (mexB (PA) strain): C (100 μM<EC99)
- EC99, mexB (PA), LVFX (mexB (PA) strain): C (100 μM<EC99)
- EC99, mexB (PA), TC (mexB (PA) strain): C (100 μM<EC99)
- EC99, S-3769 strain, AMK (S-3769 strain): B (25 μM<EC99≤100 μM)
- EC99, S-3769 strain, GM (S-3769 strain): B (25 μM<EC99≤100 μM)

Compound: CCOc1cccc(F)c1CN1CCN(C(=O)[C@H](N)C2CCN(CCc3cc(Cl)ccc3-c3ccccc3N)CC2)CC1 [Example 97, (R)-2-amino-2-(1-(2-(2′-amino-4-chloro-[1,1′-biphenyl]-2-yl)ethyl)piperidin-4-yl)-1-(4-(2-ethoxy-6-fluorobenzyl)piperazin-1-yl)ethan-1-one]
- EC99, mexB (PA), AZT (mexB (PA) strain): S (EC99≤12.5 μM)
- EC99, mexB (PA), LVFX (mexB (PA) strain): S (EC99≤12.5 μM)
- EC99, mexB (PA), TC (mexB (PA) strain): A (12.5 μM<EC99≤25 μM)
- EC99, S-3769 strain, AMK (S-3769 strain): A (12.5 μM<EC99≤25 μM)
- EC99, S-3769 strain, GM (S-3769 strain): S (EC99≤12.5 μM)

Compound: CCOc1cccc(F)c1CN1CCN(C(=O)[C@H](N)C2CCN(CCc3cc(Cl)ccc3-c3cccc(N)c3)CC2)CC1 [Example 99, Hydrobromide of (R)-2-amino-2-(1-(2-(3′-amino-4-chloro-[1,1′-biphenyl]-2-yl)ethyl)piperidin-4-yl)-1-(4-(2-ethoxy-6-fluorobenzyl)piperazin-1-yl)ethan-1-one]
- EC99, mexB (PA), AZT (mexB (PA) strain): B (25 μM<EC99≤100 μM)
- EC99, mexB (PA), LVFX (mexB (PA) strain): A (12.5 μM<EC99≤25 μM)
- EC99, mexB (PA), TC (mexB (PA) strain): A (12.5 μM<EC99≤25 μM)
- EC99, S-3769 strain, AMK (S-3769 strain): S (EC99≤12.5 μM)
- EC99, S-3769 strain, GM (S-3769 strain): S (EC99≤12.5 μM)

Compound: CCOc1cccc(F)c1CN1CCN(C(=O)[C@H](N)C2CCN(CCc3cc(Cl)ccc3-c3cccc(O)c3)CC2)CC1 [Example 100, (R)-2-amino-2-(1-(2-(4-chloro-3′-hydroxy-[1,1′-biphenyl]-2-yl)ethyl)piperidin-4-yl)-1-(4-(2-ethoxy-6-fluorobenzyl)piperazin-1-yl)ethan-1-one]
- EC99, mexB (PA), AZT (mexB (PA) strain): A (12.5 μM<EC99≤25 μM)
- EC99, mexB (PA), LVFX (mexB (PA) strain): A (12.5 μM<EC99≤25 μM)
- EC99, mexB (PA), TC (mexB (PA) strain): A (12.5 μM<EC99≤25 μM)
- EC99, S-3769 strain, AMK (S-3769 strain): S (EC99≤12.5 μM)
- EC99, S-3769 strain, GM (S-3769 strain): S (EC99≤12.5 μM)

Compound: CCOc1cccc(F)c1CN1CCN(C(=O)[C@H](N)C2CCN(CCc3cc(Cl)ccc3-c3ccsc3)CC2)CC1 [Example 101, Hydrobromide of (R)-2-amino-2-(1-(5-chloro-2-(thiophen-3-yl)phenethyl)piperidin-4-yl)-1-(4-(2-ethoxy-6-fluorobenzyl)piperazin-1-yl)ethan-1-one]
- EC99, mexB (PA), AZT (mexB (PA) strain): B (25 μM<EC99≤100 μM)
- EC99, mexB (PA), LVFX (mexB (PA) strain): C (100 μM<EC99)
- EC99, mexB (PA), TC (mexB (PA) strain): B (25 μM<EC99≤100 μM)
- EC99, S-3769 strain, AMK (S-3769 strain): S (EC99≤12.5 μM)
- EC99, S-3769 strain, GM (S-3769 strain): S (EC99≤12.5 μM)

From US20250326744A1, “PIPERAZINE DERIVATIVE OR SALT THEREOF, AND PHARMACEUTICAL COMPOSITION” (priority 2022, published 2025)
